The target of this experiment is T1, SIRT1 (Homo sapiens, UniProt Q96EB6).
T1 sequence (Q96EB6 1-747): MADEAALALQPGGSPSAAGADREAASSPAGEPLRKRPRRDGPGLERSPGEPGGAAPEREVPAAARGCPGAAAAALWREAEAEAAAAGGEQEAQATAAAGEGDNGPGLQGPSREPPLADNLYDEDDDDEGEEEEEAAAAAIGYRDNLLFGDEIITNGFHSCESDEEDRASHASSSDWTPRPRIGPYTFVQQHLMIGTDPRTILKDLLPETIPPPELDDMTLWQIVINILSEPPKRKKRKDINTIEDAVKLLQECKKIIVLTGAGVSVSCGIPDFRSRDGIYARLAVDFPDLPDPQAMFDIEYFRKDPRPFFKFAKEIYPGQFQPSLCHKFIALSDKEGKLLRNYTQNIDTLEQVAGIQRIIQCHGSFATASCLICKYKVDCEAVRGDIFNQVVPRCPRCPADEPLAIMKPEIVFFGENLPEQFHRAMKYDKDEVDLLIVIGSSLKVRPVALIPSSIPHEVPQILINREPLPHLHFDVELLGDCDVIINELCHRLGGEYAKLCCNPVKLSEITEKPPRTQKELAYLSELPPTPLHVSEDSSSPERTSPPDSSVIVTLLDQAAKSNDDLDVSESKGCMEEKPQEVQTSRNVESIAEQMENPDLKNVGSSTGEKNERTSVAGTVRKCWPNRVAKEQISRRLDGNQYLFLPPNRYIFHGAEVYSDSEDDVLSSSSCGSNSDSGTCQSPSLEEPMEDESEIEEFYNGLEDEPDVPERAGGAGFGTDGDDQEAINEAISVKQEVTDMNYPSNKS
In words: SIRT1 mass spectrometry (MS) based deacetylation assay. For FOLD ACT. MS: test concentration or dose not given here. The experiment is classed as biochemical. Conditions: for EC50: SIRT1 activation, mass spectrometry assay, read-out: ED50 MS ASSAY; for FOLD ACT. MS: fold activation of SIRT1 as determined by MS.

With `COc1cc(OC)cc(C(=O)Nc2ccccc2-c2nc3ccccc3[nH]2)c1` [Compound 141], the EC50 was less than 5 µM and the “FOLD ACT. MS” value was “B (B (Fold Activation <250%))”.

`COc1ccc(C(=O)Nc2ccccc2-c2nc3ccccc3[nH]2)cc1OC` [Compound 142]: the EC50 was less than 5 µM and the “FOLD ACT. MS” value is listed as “A (A (Fold activation >250%))”.

For the compound `COc1ccc(S(=O)(=O)Nc2ccccc2-c2nc3ccccc3[nH]2)cc1OC` [Compound 143], the EC50 was greater than 150 µM.

For the compound `COc1cc(C(=O)Nc2sccc2-c2nc3ccccc3s2)cc(OC)c1OC` [Compound 144], the EC50 is greater than 150 µM.

Consider `COc1ccc(C(=O)Nc2sccc2-c2nc3ccccc3s2)cc1OC` [Compound 145], for which the EC50 is less than 5 µM and the “FOLD ACT. MS” value was “B (B (Fold Activation <250%))”.

In the case of `COc1cc(OC)cc(C(=O)Nc2sccc2-c2nc3ccccc3s2)c1` [Compound 146], the EC50 is less than 5 µM and the “FOLD ACT. MS” value is “B (B (Fold Activation <250%))”.

`S=C(Nc1ccc2c(c1)OCO2)Nc1cccc(-c2nc3ncccc3o2)n1` [Compound 147]: the EC50 is greater than 150 µM.

For `COc1ccc(C(=O)Nc2ccc(-c3nc4cccnc4[nH]3)cc2)c(OC)c1OC` [Compound 148], the EC50 is greater than 150 µM.

On to `COc1cc(C)ccc1C(=O)Nc1ccc(-c2nc3cccnc3[nH]2)cc1` [Compound 149], for which the EC50 was less than 5 µM and the “FOLD ACT. MS” value is listed as “B (B (Fold Activation <250%))”.

`COc1ccc(C(=O)Nc2ccc(-c3nc4cccnc4[nH]3)cc2)cc1OC` [Compound 150]: the EC50 is less than 5 µM and the “FOLD ACT. MS” value is recorded as “B (B (Fold Activation <250%))”.

Turning to `COc1ccc(C(=O)Nc2ccc(-c3nc4cccnc4[nH]3)cc2)c(OC)c1` [Compound 151], the EC50 was greater than 150 µM.

As for `COc1ccc(C(=O)Nc2ccc(-c3nc4ncccc4s3)cc2)c(OC)c1` [Compound 152], the EC50 was greater than 150 µM.

As for `COc1ccc(C(=O)Nc2cc(C(=O)NCCN(C)C)cc(-c3nc4ncccc4o3)c2)cc1OC` [Compound 153], the EC50 was in the range of 5 to 50 µM and the “FOLD ACT. MS” value is “B (B (Fold Activation <250%))”.

For the compound `CN(C)CCNC(=O)c1cc(NC(=O)c2cccc(N(C)C)c2)cc(-c2nc3ncccc3o2)c1` [Compound 154], the EC50 is 101 to 150 µM and the “FOLD ACT. MS” value was “A (A (Fold activation >250%))”.

On to `COc1ccc(C(=O)Nc2cc(C(=O)NCCN(C)C)cc(-c3nc4ncccc4o3)c2)c(OC)c1` [Compound 155], for which the EC50 was 5 to 50 µM and the “FOLD ACT. MS” value is “B (B (Fold Activation <250%))”.

Take `COc1ccc(C(=O)Nc2cc(CN(C)C)cc(-c3nc4ncccc4o3)c2)cc1OC` [Compound 156]: the EC50 is 5 to 50 µM and the “FOLD ACT. MS” value is on record as “B (B (Fold Activation <250%))”.

For the compound `CN(C)Cc1cc(NC(=O)c2cccc(N(C)C)c2)cc(-c2nc3ncccc3o2)c1` [Compound 157], the EC50 was greater than 150 µM and the “FOLD ACT. MS” value is on record as “B (B (Fold Activation <250%))”.

As to `COc1ccc(C(=O)Nc2cc(CN(C)C)cc(-c3nc4ncccc4o3)c2)c(OC)c1` [Compound 158], the EC50 fell in the range of 5 to 50 µM and the “FOLD ACT. MS” value is given as “B (B (Fold Activation <250%))”.

For the compound `COc1ccc(C(=O)Nc2cc(CN3CCNCC3)cc(-c3nc4ncccc4o3)c2)cc1OC` [Compound 159], the EC50 is 5 to 50 µM and the “FOLD ACT. MS” value is “B (B (Fold Activation <250%))”.

As for `CN(C)c1cccc(C(=O)Nc2cc(CN3CCNCC3)cc(-c3nc4ncccc4o3)c2)c1` [Compound 160], the EC50 fell in the range of 51 to 100 µM and the “FOLD ACT. MS” value is listed as “A (A (Fold activation >250%))”.

For `COc1ccc(C(=O)Nc2cc(CN3CCNCC3)cc(-c3nc4ncccc4o3)c2)c(OC)c1` [Compound 161], the EC50 lay in the range of 5 to 50 µM and the “FOLD ACT. MS” value is given as “A (A (Fold activation >250%))”.

Take `COc1ccc(C(=O)Nc2ccccc2-c2nc3ccncc3s2)cc1OC` [Compound 162]: the EC50 was less than 5 µM and the “FOLD ACT. MS” value was “B (B (Fold Activation <250%))”.

As to `COc1cc(C(=O)Nc2ccccc2-c2nc3ccncc3s2)cc(OC)c1OC` [Compound 163], the EC50 is less than 5 µM and the “FOLD ACT. MS” value is on record as “B (B (Fold Activation <250%))”.

Regarding `CN(C)Cc1ccc2oc(-c3cccc(NC(=O)c4cccc(N(C)C)c4)c3)nc2n1` [Compound 165], the EC50 was greater than 150 µM and the “FOLD ACT. MS” value is recorded as “A (A (Fold activation >250%))”.

Consider `CN(C)c1cccc(C(=O)Nc2cccc(-c3nc4nc(CN5CCNCC5)ccc4o3)c2)c1` [Compound 166, 3-dimethylamino-N-[3-(5-piperazin-1-ylmethyl-oxazolo[4,5-b]pyridin-2-yl)-phenyl]-benzamide], for which the EC50 is 5 to 50 µM and the “FOLD ACT. MS” value is on record as “B (B (Fold Activation <250%))”.

Turning to `Cc1ccc2oc(-c3cccc(NC(=O)c4cccc(N(C)C)c4)c3)nc2n1` [Compound 167], the EC50 was 5 to 50 µM and the “FOLD ACT. MS” value was “B (B (Fold Activation <250%))”.

Regarding `CN(C(=O)Nc1ccccc1-c1nc2ccccc2[nH]1)c1ccccc1` [Compound 169], the EC50 was less than 5 µM and the “FOLD ACT. MS” value was “B (B (Fold Activation <250%))”.

Consider `COc1cc(C(=O)Nc2cc(CN(C)C)cc(-c3nc4ccncc4s3)c2)cc(OC)c1OC` [Compound 174], for which the EC50 fell in the range of 51 to 100 µM and the “FOLD ACT. MS” value is on record as “A (A (Fold activation >250%))”.

`COc1ccc(C(=O)Nc2ccccc2-n2cccc2)cc1OC` [Compound 175]: the EC50 lay within 51 to 100 µM and the “FOLD ACT. MS” value was “B (B (Fold Activation <250%))”.

As for `COc1cc(C(=O)Nc2ccccc2-n2cccn2)cc(OC)c1OC` [Compound 176], the EC50 fell in the range of 51 to 100 µM and the “FOLD ACT. MS” value is given as “B (B (Fold Activation <250%))”.

In the case of `COc1ccc(C(=O)Nc2ccccc2-n2cccn2)cc1OC` [Compound 177], the EC50 is greater than 150 µM and the “FOLD ACT. MS” value is “B (B (Fold Activation <250%))”.

`COc1ccc(C(=O)Nc2ccccc2-c2cn3cc(CN(C)C)sc3n2)cc1OC` [Compound 178]: the EC50 was in the range of 5 to 50 µM and the “FOLD ACT. MS” value is given as “A (A (Fold activation >250%))”.

For `COc1cc(C(=O)Nc2ccccc2-c2cn3cc(CN(C)C)sc3n2)cc(OC)c1OC` [Compound 179], the EC50 is less than 5 µM and the “FOLD ACT. MS” value is reported as “A (A (Fold activation >250%))”.

For the compound `CN(C)c1cccc(C(=O)Nc2ccc(-c3nc4cccnc4[nH]3)cc2)c1` [Compound 180], the EC50 was 5 to 50 µM and the “FOLD ACT. MS” value is on record as “B (B (Fold Activation <250%))”.

With `COc1ccc(C(=O)Nc2cccc(-c3nc4cccnc4[nH]3)c2)c(OC)c1OC` [Compound 181], the EC50 is less than 5 µM and the “FOLD ACT. MS” value is recorded as “A (A (Fold activation >250%))”.

For the compound `COc1cc(C)ccc1C(=O)Nc1cccc(-c2nc3cccnc3[nH]2)c1` [Compound 182], the EC50 was less than 5 µM and the “FOLD ACT. MS” value is “A (A (Fold activation >250%))”.

Turning to `CN(C)c1cccc(C(=O)Nc2cccc(-c3nc4ncccc4[nH]3)c2)c1` [Compound 183], the EC50 is 5 to 50 µM and the “FOLD ACT. MS” value is recorded as “A (A (Fold activation >250%))”.

On to `COc1ccc(C(=O)Nc2cccc(-c3nc4ncccc4[nH]3)c2)c(OC)c1` [Compound 184], for which the EC50 is less than 5 µM and the “FOLD ACT. MS” value was “B (B (Fold Activation <250%))”.

Turning to `COc1ccc(C(=O)Nc2cccc(-c3nc4cccnc4[nH]3)c2)cc1OC` [Compound 185], the EC50 is less than 5 µM and the “FOLD ACT. MS” value is “A (A (Fold activation >250%))”.

With `COc1cc(C)ccc1C(=O)Nc1ccc(-c2cc3cccnc3o2)cc1` [Compound 187], the EC50 fell in the range of 5 to 50 µM and the “FOLD ACT. MS” value was “B (B (Fold Activation <250%))”.

For the compound `COc1ccc(C(=O)Nc2ccc(-c3cc4cccnc4o3)cc2)c(OC)c1` [Compound 190], the EC50 is less than 5 µM and the “FOLD ACT. MS” value is given as “B (B (Fold Activation <250%))”.

`COc1ccc(C(=O)Nc2cccc(-c3cc4cccnc4o3)c2)c(OC)c1` [Compound 191]: the EC50 was less than 5 µM and the “FOLD ACT. MS” value is recorded as “B (B (Fold Activation <250%))”.

On to `COc1ccc(C(=O)Nc2cccc(-c3cc4cccnc4o3)c2)cc1OC` [Compound 192], for which the EC50 was 5 to 50 µM and the “FOLD ACT. MS” value is “B (B (Fold Activation <250%))”.

For the compound `CN(C)c1cccc(C(=O)Nc2ccc(-c3nc4ncccc4s3)cc2)c1` [Compound 196], the EC50 was 5 to 50 µM and the “FOLD ACT. MS” value is “B (B (Fold Activation <250%))”.

Take `COc1ccc(C(=O)Nc2ccc(-c3nc4ncccc4s3)cc2)cc1OC` [Compound 197]: the EC50 is less than 5 µM and the “FOLD ACT. MS” value is listed as “B (B (Fold Activation <250%))”.

As for `COc1ccc(C(=O)Nc2cccc(-c3nc4ncccc4s3)c2)c(OC)c1OC` [Compound 198], the EC50 was 5 to 50 µM and the “FOLD ACT. MS” value is recorded as “B (B (Fold Activation <250%))”.

Turning to `COc1cc(C)ccc1C(=O)Nc1cccc(-c2nc3ncccc3s2)c1` [Compound 199], the EC50 was less than 5 µM and the “FOLD ACT. MS” value is reported as “B (B (Fold Activation <250%))”.

Values taken from patent US8044198B2, “Sirtuin modulating compounds” (Sirtris Pharmaceuticals, Inc., priority 2005, dated 2011).
